The values below are quoted from earlier work in PMC4210863 (Bioorganic & medicinal chemistry, 2010).

Structures are written as SMILES.

For this data set, the target named is T1, O-GlcNAcase (OGA) (Homo sapiens, UniProt O60502).
T1 sequence (O60502 1-916): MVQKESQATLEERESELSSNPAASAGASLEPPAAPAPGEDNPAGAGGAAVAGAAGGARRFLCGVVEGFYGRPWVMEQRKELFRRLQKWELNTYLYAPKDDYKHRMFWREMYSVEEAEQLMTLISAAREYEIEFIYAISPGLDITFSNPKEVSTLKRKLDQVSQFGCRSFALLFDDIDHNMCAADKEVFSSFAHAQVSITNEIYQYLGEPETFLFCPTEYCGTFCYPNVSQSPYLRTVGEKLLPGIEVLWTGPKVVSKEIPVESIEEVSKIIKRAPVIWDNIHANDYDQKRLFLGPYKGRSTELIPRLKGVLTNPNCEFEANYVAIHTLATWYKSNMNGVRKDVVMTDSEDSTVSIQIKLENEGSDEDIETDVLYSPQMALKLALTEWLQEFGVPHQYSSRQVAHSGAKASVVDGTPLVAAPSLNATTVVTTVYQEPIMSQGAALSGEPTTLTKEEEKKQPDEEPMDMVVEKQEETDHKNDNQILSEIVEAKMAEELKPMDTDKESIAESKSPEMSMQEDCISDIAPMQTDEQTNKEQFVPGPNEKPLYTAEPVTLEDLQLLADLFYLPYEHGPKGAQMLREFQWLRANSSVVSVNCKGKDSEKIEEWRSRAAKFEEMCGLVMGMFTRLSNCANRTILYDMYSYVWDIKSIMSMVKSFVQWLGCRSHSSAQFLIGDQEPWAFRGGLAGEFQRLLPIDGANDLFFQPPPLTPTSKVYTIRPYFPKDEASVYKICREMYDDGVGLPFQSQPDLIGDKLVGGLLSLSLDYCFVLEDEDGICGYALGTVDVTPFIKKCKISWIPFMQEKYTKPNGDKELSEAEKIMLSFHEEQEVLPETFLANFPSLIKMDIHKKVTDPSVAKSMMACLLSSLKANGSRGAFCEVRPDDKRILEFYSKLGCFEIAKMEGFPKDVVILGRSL
Description: fluorogenic substrate hydrolysis by OGA. The class given is biochemical.

One may read the Km as the concentration of substrate that gives half-maximal velocity. Consider `CC(=O)N[C@H]1[C@H](Oc2ccc3c(c2)Oc2cc(O[C@@H]4O[C@H](CO)[C@@H](O)[C@H](O)[C@H]4NC(C)=O)ccc2C32OC(=O)c3ccccc32)O[C@H](CO)[C@@H](O)[C@@H]1O` [compound 3, FDGlcNAc], for which the Km is 85 µM.
